Series [1] has as its system H460 human lung cancer xenografts. Description: Growth delay and survival of H460 xenografts, PR-104, docetaxel and schedules thereof. Format: in vivo, CD-1 nude mice. The protocol: Specific pathogen-free homozygous nu/nu (CD-1) nu/nu [NIH-III] (Charles River Laboratories, Wilmington, Mass.) were provided by the Animal Resources Unit (University of Auckland) at 7 to 9 weeks of age. Mice were housed in groups of 4-7 in a temperature-controlled room (22±2° C.) with a 12-hour light/dark cycle and were fed ad libitum water and a standard rodent diet (Harlan Teklad diet 2018i). All animals were uniquely identifiable by ear tag number. All animal protocols were approved by the Animal Ethics Committee of the University of Auckland (AEC approval C337).
A single cell suspension was prepared by trypsinisation (1× Trypsin/EDTA) from spinner culture, counted, and suspended in ∝MEM to give required cell concentration, as listed below. Mice were inoculated (100 μL) at a single subcutaneous site (right flank) using a 1 ml syringe with a 26 gauge needle.
Seven days post-inoculation, tumors were measured three times per week until they reached the treatment size (mean diameter 5.8-8.2 mm; average 7.0 mm). Mean tumor diameter was averaged from the longest diameter (length) multiplied by the perpendicular measurement (width). Tumor diameters were estimated when mean diameter was below 5 mm, and measured with electronic callipers when ≧5 mm.
Tumor volume was calculated using the formula:
where L=length and w=width in mm of the carcinoma.
(§1) Excess compound was discarded.
Tumor bearing mice were assigned randomly to treatment groups when tumor diameter reached treatment size. Animals were rejected if xenografts show evidence of: (i) attachment to underlying muscle (due to risk of local invasion), (ii) signs of ulceration, or (iii) indolent tumor growth. Drug administration begins on the day of assignment. In general, 0.7-0.8 of the inoculated population is assigned to the experiment. Drug administration was undertaken as outlined above.
During and after treatment, tumor size and body weights were measured regularly. Animals were culled if (i) the average diameter of the tumor exceeds 15 mm (survival end-point), (ii) body weight loss exceeds 15% of pre-treatment value, (iii) there is evidence of prolonged or excessive morbidity, or (iv) tumor ulceration occurred. Each experiment was terminated at day 120 after treatment initiation.
Kaplan-Meier plots were constructed and median survival was calculated (TTE50). The statistical significance of any differences in overall survival between treatment groups and control was analysed by Log Rank P statistical test. The log-rank test was calculated using XLStat Life (Kovach Computing Services Ltd). The statistic significance in overall survival between each treatment group and control was determined by testing the null hypothesis that the survival curves are identical in the two populations.
The time for individual tumors to increase in volume by 4 fold relative to treatment day-1 (relative tumor volume×4−RTV^4) was recorded. The median RTV^4 is calculated for each group and the difference in RTV^4 between control and treatment groups is described as the Tumor Growth Delay (TGD) in days. RTV^4 values notmalise for any bias in tumor treatment volume on day-1. The RTV^4 of each treatment group is tested for statistical difference from control group by unpaired t-test and Mann Whitney U test (means and medians, respectively).
In circumstances where long-term controls (LTCs) occur, an RTV^4 value equal to the total duration of the experiment is assigned for the purposes of statistical analysis (usually 120 days). Where one or more LTC is present the median RTV^4 of each treatment group is tested for statistical difference from control group by Mann Whitney U test only. The statistical analysis was conducted at a p level of 0.05 (two-tailed). SigmaStat v3.10 was used for the statistical analysis of RTV^4 values. SigmaPlot v9 was used for all graph plots.
Weight loss nadirs (time independent maxima) were recorded for each treatment group.

The test system of series [2] is 22RV1 androgen-resistant human prostate cancer xenograft. Description: Growth delay and survival of 22RV1 xenograft, PR-104 and docetaxel. Format: in vivo, CD-1 nude mice. The protocol:
End-point: After treatment, tumor size and body weights were measured regularly and mice were culled either when the average diameter of the tumor reached 15 mm (end-point), the tumor ulcerated or when the body weight change reached −15%. Experiment was ended and all remaining mice culled 120 days after treatment.
Analysis: End-points will be expressed as TTE50, Median RTV^4 and plotted in Kaplan-Meier Plots and analysed by Log Rank P statistical test.

The test system of series [3] is SiHa cervical cancer xenografts. The series can be described thus: Excision assay of SiHa xenografts (clonogenic log cell kill). Format: in vivo, CD-1 Fox^nu mice. To be noted: SN 28343 91.2 mg/kg, SN 29303 375 mg/kg. As for the experimental part:
As for Part 1 except for except where noted below.
as §1
Date, body weights (used to adjust injection volume), tumor diameter, unique identifier (tail markings), body weight, and volume to be injected were recorded. Animals were dosed with the test articles i.p. following a defined treatment schedule:
18 hours after treatment the mice were culled by cervical dislocation and tumors removed by dissection, in a sterile laminar flow hood. Whole tumor weights were recorded. Tumors were minced using scissors or scalpels until a fine minceate was obtained, and up to 500 mg of minceate was transferred into a pre-tiered Falcon®14 ml test tube containing a sterile magnetic spin bar and re-weighed.
Samples were then incubated in 37° C. water bath for 30 min over a magnetic stirrer.
After incubation any undissociated material was allowed to settle for 1 minute. […] Pellets were re-suspended in 10 ml of medium. Cells/ml was determined using an electronic particle counter (Beckman Coulter Electronics, Z2 model). Samples were then diluted to 1×10^5cells/ml and 6-fold serial dilutions made down to 4.6×10^2cells/ml.
1 ml of each sample was plated in triplicate for each dilution into appropriately labelled Falcon® P-60 tissue culture dishes containing 4 ml of αMEM+10% FCS+PS.
Where possible, all plates were counted; those colonies counted=larger than 50 cells, confirmed with the light microscope. TMTC was recorded for those plates where there were too many colonies to count.
The criteria for selecting the best dilution to use for calculating plating efficiency (PE):
Higher dilution count>100 colonies (average); lower dilution 10-100 colonies, use PE from the dilution with fewer colonies.
Higher dilution count >100; lower dilution count <20, use average data from both.
Higher dilution count <100; lower dilution count <20, use PE from the dilution with more colonies.
Higher dilution count <100; lower dilution count >20, use average data from both. Note: For the 10^5 dilution, take as the “lower limit” colony count a total count of 30, (sum of all replicates).

The mark [4] stands for this setting: H460 xenograft, PR-104 652 mg/kg, docetaxel 73 mg/kg, q2w×2.
Setting [5] is: 22RV1 xenograft, PR-104 652 mg/kg, docetaxel 73 mg/kg, q2w×2.

For `CC(=O)O[C@@]12CO[C@@H]1C[C@H](O)[C@@]1(C)C(=O)[C@H](O)C3=C(C)[C@@H](OC(=O)[C@H](O)[C@@H](NC(=O)OC(C)(C)C)c4ccccc4)C[C@@](O)([C@@H](OC(=O)c4ccccc4)[C@H]21)C3(C)C` [Docetaxel, (2R,3S)-N-carboxy-3-phenylisoserine, N-tert-butyl ester, 13-ester with 5β-20-epoxy-1,2α,4,7β,10β,13α-hexahydroxytax-11-en-9-one 4-acetate 2-benzoate, trihydrate, reference compound], the “Weight Loss Nadir (%)” value in series [1] (H460 xenograft, CD-1 nude mice, mean body weight loss nadir, PR-104 652 mg/kg, docetaxel 73 mg/kg, i.p., q2w×2, trihydrate) is recorded as −4.2 ± 1.0%. The Unscheduled deaths in series [1] (H460 xenograft, female CD-1 nude mice, total dose PR-104 652 mg/kg, docetaxel 73 mg/kg, i.p., q2w×2) was 0. The “LTC (long term control, failed to reach end-point within duration of experiment)” value in series [1] (H460 xenograft, 120 day experiment, PR-104 652 mg/kg, docetaxel 73 mg/kg, q2w×2) stood at 0. In series [1] (setting [4]), the “Median RTV^4 (median time for tumor volume to increase 4-fold)” value is given as 8 days and the “TGD (tumor growth delay; relative gain in median RTV^4 versus control)” value stood at 0%. The “TTE50 (median time for tumor end-point to occur from day of treatment)” value in series [1] (H460 xenograft, end-point >15 mm mean diameter, PR-104 652 mg/kg, docetaxel 73 mg/kg, q2w×2) came to 14 days. The “Gain TTE50 (improvement in median survival)” value in series [1] (H460 xenograft, versus control (11 days), PR-104 652 mg/kg, docetaxel 73 mg/kg, q2w×2) was found to be 3 days. Further, the “activity against H460 xenograft (in words)” value in series [1] (tumor growth delay and survival end-points) is “refractory”. Also, the “activity against 22RV1 xenograft (in words)” value in series [2] (22RV1 prostate xenograft model) is listed as “moderately active”. For the same compound, the “Weight Loss Nadir (%)” value in series [2] (22RV1 xenograft, CD-1 nude mice, PR-104 652 mg/kg, docetaxel 73 mg/kg, i.p., q2w×2, trihydrate) is listed as −3.5±0.8%. The “LTC (long term control)” value in series [2] (22RV1 xenograft, 120 day experiment) is on record as 0. Also, in series [2] (setting [5]), the “Median RTV^4” value is listed as 20 days, the “TGD (relative gain in median RTV^4 versus control; TGI in text)” value was determined as 122% and the TTE50 worked out at 24 days. For the same compound, the “median tumor growth delay” value in series [2] (22RV1 xenograft, versus control) came to 11 days. The “Gain TTE50 (improvement in median survival)” value in series [2] (22RV1 xenograft, versus control (9.5 days)) turned out to be 14.5 days. Moreover, the “cell kill versus controls in excision assay (in words)” value in series [3] (SiHa human cervical tumor xenograft, docetaxel 65 mg/kg i.p.) is “inactive”. Besides, in series [3] (SiHa tumors excised 18 hours after treatment, docetaxel 65 mg/kg, i.p.), the “Log Cell Kill versus controls (Mean ± SEM)” value was 0.451.

For the origin of these results see US20080064665A1, “Combination approaches to cancer treatment” (priority 2006, published 2008).
